Data published in ChEMBL document CHEMBL1158967, “A cytotoxic and antifungal 1,4-naphthoquinone and related compounds from a New Zealand brown algae, Landsburgia quercifolia” (J Nat Prod, 1991).
≈ marks a conversion by molar mass, not a printed value. Calls of active or inactive are those of the source. No cut-off for these calls is given here.

Key:
P388 = assay: Cytotoxicity against mouse P388 cells; type: functional, cell-based
Pseudomonas aeruginosa = assay: Antimicrobial activity against Pseudomonas aeruginosa at 60 ug/disk; type: functional, organism-based
Poliovirus 1 = assay: Antiviral activity against Poliovirus type 1 in african green monkey BSC1 cells assessed as inhibition of virus-induced cytopathic effect; type: functional, organism-based; details: BSC-1
Candida albicans = assay: Antimicrobial activity against Candida albicans at 60 ug/disk; type: functional, organism-based
Escherichia coli = assay: Antimicrobial activity against Escherichia coli at 60 ug/disk; type: functional, organism-based
Bacillus subtilis = assay: Antimicrobial activity against Bacillus subtilis at 60 ug/disk; type: functional, organism-based
[1] = Cytotoxicity against african green monkey BSC1 cells at 10 ug; type: cell-based; details: chlorocebus aethiops, bsc-1
[2] = tested on: Trichophyton mentagrophytes; assay: Antimicrobial activity against Trichophyton mentagrophytes at 60 ug/disk; type: functional, organism-based
Human alphaherpesvirus 1 = assay: Antiviral activity against HSV1 in african green monkey BSC1 cells assessed as inhibition of virus-induced cytopathic effect; type: functional, organism-based; details: BSC-1

SMILES | IC50 (P388) | Activity (Pseudomonas aeruginosa) | Activity (Poliovirus 1) | Activity (Candida albicans) | Activity (Escherichia coli) | Activity (Bacillus subtilis) | Activity [1] | Activity [2] | Activity (Human alphaherpesvirus 1)
CC(C)=CCC1=C(O)C(=O)c2ccccc2C1=O [LAPACHOL] | 0.2 µg/mL (≈ 0.826 µM) |  |  |  |  |  |  |  | 
COc1cc(CC=C(C)C)c(OC)c2ccccc12 | > 25 µg/mL |  |  |  |  |  |  |  | 
CC(C)=CCC1(CC=C(C)C)CC(=O)c2ccccc2C1=O | > 12.5 µg/mL |  |  |  |  |  |  |  | 
CC(C)=CCC1=CC(=O)c2ccccc2C1=O [DEOXYLAPACHOL] | 0.6 µg/mL (≈ 2.65 µM) | inactive | inactive | Active | inactive | Active | Active | Active | inactive
CC(C)=CCC12OC1C(=O)c1ccccc1C2=O (configuration not stated) | 0.8 µg/mL (≈ 3.3 µM) | inactive | inactive | Active | inactive | Active | Active | Active | inactive
COC1(OC)c2ccccc2C(=O)C2(CC=C(C)C)OC21 (racemic) | > 12.5 µg/mL |  |  |  |  |  |  |  | 
